Test results from patent US9279107B2, “Simplified basic media for human pluripotent cell culture” (WISCONSIN ALUMNI RESEARCH FOUNDATION, priority 2010, dated 2016).

What was measured:
Assay type in all cases: cell-based, human
[1] = test system: patient cell lines OAT, PRPF8-2, GRC M1-29; assay: Reprogramming of adult donor cell lines with episomal vectors; details: TGF-β added to the reprogramming media
foreskin cells = assay: Reprogramming of foreskin fibroblasts to iPS cells; details: foreskin fibroblasts
Procedure: Available reprogramming protocols include incubation of the cells in FBS in the first several days after viral transduction or electroporation, prior to switching the cells to UM100 (U.S. Pat. No. 7,439,064, incorporated herein as if set forth in its entirety) or CM. The simplified media described in previous Examples were tested for their ability to support reprogramming.
To determine if DF5S-based media can be used for viral-free iPS cell derivation, foreskin cells were reprogrammed using a viral-free episomal vector, as described in Yu et al., Science 324:797 (2009), incorporated herein by reference as if set forth in its entirety, at hypoxic conditions (O5C10).
Plasmid combinations #6 and #19 were used for the reprogramming. In order to enhance the plasmid entry into the nucleus, ENBA mRNA was electroporated along with plasmid DNA. Around one million cells were transferred onto two 6-well plates in DF5SFeC for 5 days. Medium was then switched to DF5SFe for another 18-25 days. Cells of some of the wells were passaged for a second time using a 1:6 ratio at different time points.

H1 cells [2] = assay: Oct4 expression by flow cytometry as indicator of pluripotency
Procedure: As described in Example 3, human pluripotent cells, such as H1, H9, and iPS cells, could be grown and passaged over 15 times in DF5S but were prone to differentiate, such that extra care is needed to sustain pluripotency in DF5S. Because pluripotency could be maintained more easily in TeSR™, growth factors present in TeSR™ were added individually to DF5SFe used to grow H1 cells that were previously cultured in DF5S without differentiating to identify factors supporting long-term pluripotency. Cells were passaged approximately one day after reaching confluency, facilitating cell differentiation, and Oct4 expression, assessed by flow cytometry, was used as indicator of pluripotency.
Human pluripotent cells grown in DF5SFe elongated and lined up along each other, resembling a “spindle” shape just prior to differentiation. […] Thus, recombinant proteins of the TGF-β pathway were tested for their ability to support long-term pluripotency.

H1 cells [3] = assay: NANOG mRNA expression; details: added to DF5S; NODAL 100 ng/ml or TGF-β 2 ng/ml; compared to DF5S
Description: DF5S was used to expand H1 cells. Cells grown in DF5S were more prone to differentiate than cells grown in TeSR™. However, H1 cells could be grown for several weeks (more than 15 passages), during which the cells maintained human ES cell morphology and high levels of OCT4 expression (FIG. 1E, FIG. 1F). […] DF5S+NODAL also supported pluripotency of the two tested human iPS cell lines, as determined by high expression of the pluripotency marker OCT4. All cells (hES cells and iPS cells) grown in DF5S with either NODAL or TGF-β maintained a normal karyotype after long-term passage.

iPS cells = assay: Long-term pluripotency of lentiviral iPS cell lines; details: added to DF5SFe; TGF-β 2 ng/ml or NODAL 100 ng/ml
Description: Human ES cell lines, such as H1 and H9 have a culture history that includes exposure to various complex culture components, such as FBS, feeder cells, and knockout serum replacer. Exposure to these components could conceivably create dependency on these components and, consequently, alter cellular response to simplified media. Culture history might play a lesser role for iPS cells, derived from reprogrammed somatic cells, as derivation conditions are less complex. Therefore, different factors were tested with two original lentiviral iPS cell lines (Yu, et al., Science 318:1917 (2007)) grown in DF5SFe. Cells were transferred from MEF plates directly into DF5SFe medium for one passage and then passaged into various growth factor conditions. […] Pluripotency surface markers SSEA4, SSEA3, Tra-1-60, and Tra-1-81 were also expressed. Cells with normal karyotypes were continuously maintained for more than 20 passages. The cells were capable of forming teratomas 5-7 weeks after injection into severe combined immunodeficient (SCID) mice.

transforming growth factor beta [TGF-β]
number of iPS clones [1]: not increased significantly | total number of colonies [1]: increased significantly | number of colonies during reprogramming (foreskin cells): increased numbers of colonies | number of true iPS cell colonies (foreskin cells; TGF-β addition): remained low | Oct4 expression (H1 cells [2]; DF5SFe supplemented with TGF-β at TeSR concentration (0.6 ng/ml)): low levels of Oct4 expression | Oct4 expression (H1 cells [2]; DF5SFe supplemented with TGF-β at higher concentration (1 ng/ml)): maintain high Oct4 expression | NANOG mRNA level (H1 cells [3]): significantly higher levels of NANOG mRNA | long-term pluripotency (iPS cells): supported long-term pluripotency of iPS cells
